Reference: patent publication US9650361B2, “N-(pyridin-2-yl)pyrimidin-4-amine derivatives containing a sulfoximine group” (BAYER PHARAM AKTIENGESELLSCHAFT, priority 2012, dated 2017)

Legend:
HeLa cells = assay: Proliferation assay, HeLa (Method 3); format: cell-based, human; conditions: Homo sapiens, HeLa, 96 h, 4 days, crystal violet; read-out: Inhibition of HeLa cell proliferation IC50
Description: Cultivated tumour cells (HeLa, human cervical tumour cells, ATCC CCL-2; NCI-H460, human non-small cell lung carcinoma cells, ATCC HTB-177; A2780, human ovarian carcinoma cells, ECACC #93112519; DU 145, hormone-independent human prostate carcinoma cells, ATCC HTB-81; HeLa-MaTu-ADR, multidrug-resistant human cervical carcinoma cells, EPO-GmbH Berlin; Caco-2, human colorectal carcinoma cells, ATCC HTB-37; B16F10, mouse melanoma cells, ATCC CRL-6475) were plated at a density of 5,000 cells/well (DU145, HeLa-MaTu-ADR), 3,000 cells/well (NCI-H460, HeLa), 2,500 cells/well (A2780), 1,500 cells/well (Caco-2), or 1,000 cells/well (B16F10) in a 96-well multititer plate in 200 μL of their respective growth medium supplemented 10% fetal calf serum. After 24 hours, the cells of one plate (zero-point plate) were stained with crystal violet (see below), while the medium of the other plates was replaced by fresh culture medium (200 μl), to which the test substances were added in various concentrations (0 μM, as well as in the range of 0.001-10 μM; the final concentration of the solvent dimethyl sulfoxide was 0.5%). The cells were incubated for 4 days in the presence of test substances. Cell proliferation was determined by staining the cells with crystal violet: the cells were fixed by adding 20 μl/measuring point of an 11% glutaric aldehyde solution for 15 minutes at room temperature. After three washing cycles of the fixed cells with water, the plates were dried at room temperature. The cells were stained by adding 100 μl/measuring point of a 0.1% crystal violet solution (pH 3.0). After three washing cycles of the stained cells with water, the plates were dried at room temperature. The dye was dissolved by adding 100 μl/measuring point of a 10% acetic acid solution. The extinction was determined by photometry at a wavelength of 595 nm. The change of cell number, in percent, was calculated by normalization of the measured values to the extinction values of the zero-point plate (=0%) and the extinction of the untreated (0 μm) cells (=100%). The IC50 values (inhibitory concentration at 50% of maximal effect) were determined by means of a 4 parameter fit.

CDK9/CycT1 = molecular target: T1, CDK9/CycT1 (Homo sapiens, UniProt P50750); assay: CDK9/CycT1 high ATP kinase assay (Method 1b); format: biochemical; conditions: 2 mM ATP
T1 construct: Recombinant full-length His-tagged human CDK9 and CycT1; His; purchased Invitrogen PV4131; host or cells: insect cells
Description: 1b. CDK9/CycT1 High ATP Kinase Assay
CDK9/CycT1-inhibitory activity of compounds of the present invention at a high ATP concentration after preincubation of enzyme and test compounds was quantified employing the CDK9/CycT1 TR-FRET assay as described in the following paragraphs.
Recombinant full-length His-tagged human CDK9 and CycT1, expressed in insect cells and purified by Ni-NTA affinity chromatography, were purchase from Invitrogen (Cat. No PV4131). As substrate for the kinase reaction biotinylated peptide biotin-Ttds-YISPLKSPYKISEG (C-terminus in amid form) was used which can be purchased e.g. form the company JERINI peptide technologies (Berlin, Germany).
For the assay 50 nl of a 100 fold concentrated solution of the test compound in DMSO was pipetted into a black low volume 384 well microtiter plate (Greiner Bio-One, Frickenhausen, Germany), 2 μl of a solution of CDK9/CycT1 in aqueous assay buffer [50 mM Tris/HCl pH 8.0, 10 mM MgCl2, 1.0 mM dithiothreitol, 0.1 mM sodium ortho-vanadate, 0.01% (v/v) Nonidet-P40 (Sigma)] were added and the mixture was incubated for 15 min at 22° C. to allow pre-binding of the test compounds to the enzyme before the start of the kinase reaction. Then the kinase reaction was started by the addition of 3 μl of a solution of adenosine-tri-phosphate (ATP, 3.3 mM=>final conc. in the 5 μl assay volume is 2 mM) and substrate (1.67 μM=>final conc. in the 5 μl assay volume is 1 μM) in assay buffer and the resulting mixture was incubated for a reaction time of 25 min at 22° C. The concentration of CDK9/CycT1 was adjusted depending of the activity of the enzyme lot and was chosen appropriate to have the assay in the linear range, typical concentrations were in the range of 0.5 μg/ml. The reaction was stopped by the addition of 5 μl of a solution of TR-FRET detection reagents (0.2 μM streptavidine-XL665 [Cisbio Bioassays, Codolet, France] and 1 nM anti-RB(pSer807/pSer811)-antibody from BD Pharmingen [#558389] and 1.2 nM LANCE EU-W1024 labeled anti-mouse IgG antibody [Perkin-Elmer, product no. AD0077]) in an aqueous EDTA-solution (100 mM EDTA, 0.2% (w/v) bovine serum albumin in 100 mM HEPES/NaOH pH 7.0).
The resulting mixture was incubated 1 h at 22° C. to allow the formation of complex between the phosphorylated biotinylated peptide and the detection reagents. Subsequently the amount of phosphorylated substrate was evaluated by measurement of the resonance energy transfer from the Eu-chelate to the streptavidine-XL. Therefore, the fluorescence emissions at 620 nm and 665 nm after excitation at 350 nm was measured in a HTRF reader, e.g. a Rubystar (BMG Labtechnologies, Offenburg, Germany) or a Viewlux (Perkin-Elmer). The ratio of the emissions at 665 nm and at […] was taken as the measure for the amount of phosphorylated substrate. The data were normalised (enzyme reaction without inhibitor=0% inhibition, all other assay components but no enzyme=100% inhibition).

T1 sequence (P50750 whole entry): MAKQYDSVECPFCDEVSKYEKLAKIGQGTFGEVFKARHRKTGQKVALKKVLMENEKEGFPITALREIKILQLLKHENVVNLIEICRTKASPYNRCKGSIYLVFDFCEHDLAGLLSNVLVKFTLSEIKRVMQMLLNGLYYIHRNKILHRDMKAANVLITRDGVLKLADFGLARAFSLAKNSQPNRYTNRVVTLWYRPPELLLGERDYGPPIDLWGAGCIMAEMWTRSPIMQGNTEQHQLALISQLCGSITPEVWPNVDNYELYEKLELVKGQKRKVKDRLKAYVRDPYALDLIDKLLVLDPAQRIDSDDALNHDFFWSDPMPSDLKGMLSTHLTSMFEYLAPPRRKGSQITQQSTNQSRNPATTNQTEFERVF
T1 sequence (O60563 whole entry partner): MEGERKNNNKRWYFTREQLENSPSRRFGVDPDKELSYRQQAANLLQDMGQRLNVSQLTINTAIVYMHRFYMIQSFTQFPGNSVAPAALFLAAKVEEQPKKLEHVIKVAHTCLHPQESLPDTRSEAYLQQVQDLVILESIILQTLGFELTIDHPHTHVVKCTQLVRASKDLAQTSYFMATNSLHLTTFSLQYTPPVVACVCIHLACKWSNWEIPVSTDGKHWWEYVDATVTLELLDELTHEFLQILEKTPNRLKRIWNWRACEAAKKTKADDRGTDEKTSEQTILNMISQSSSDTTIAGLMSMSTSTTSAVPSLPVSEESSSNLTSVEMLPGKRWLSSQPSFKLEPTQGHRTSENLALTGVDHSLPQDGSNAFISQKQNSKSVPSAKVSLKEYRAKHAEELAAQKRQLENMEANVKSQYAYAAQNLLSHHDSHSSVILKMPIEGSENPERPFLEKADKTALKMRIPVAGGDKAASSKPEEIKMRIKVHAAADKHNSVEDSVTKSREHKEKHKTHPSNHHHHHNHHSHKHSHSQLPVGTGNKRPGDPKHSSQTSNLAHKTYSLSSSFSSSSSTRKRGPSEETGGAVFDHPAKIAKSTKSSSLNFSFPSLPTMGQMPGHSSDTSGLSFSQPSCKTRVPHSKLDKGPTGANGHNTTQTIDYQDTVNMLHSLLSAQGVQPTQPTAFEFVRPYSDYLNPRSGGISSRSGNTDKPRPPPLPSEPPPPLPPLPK

IC50 (HeLa cells): 0.338 µM | IC50 (CDK9/CycT1): 0.194 µM
SMILES: CCS(=N)(=O)Cc1ccnc(Nc2cc(-c3ccc(F)cc3OC)ncn2)c1 (racemic) [Example 11, (rac)-N-{4-[(S-Ethylsulfonimidoyl)methyl]pyridin-2-yl}-6-(4-fluoro-2-methoxyphenyl)pyrimidin-4-amine]
